PubChem BioAssay (NCI)
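Growth conditions: 96-well plates. Treatment: test compound, 48 hours, 5 concentrations. Analysis: linear interpolation between bracketing concentrations; unreached endpoints set to highest concentration. TGI denotes the concentration required for complete inhibition of growth.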

What was measured:
Experiment in all cases: NCI tumour cell line growth inhibition, 48 h
M19-MEL melanoma = test system: M19-MEL melanoma
RXF-631 renal = test system: RXF-631 renal
LXFL 529 NSCLC = test system: LXFL 529 NSCLC
KM20L2 colon = test system: KM20L2 colon
DMS 273 small cell lung = test system: DMS 273 small cell lung
HOP-18 NSCLC = test system: HOP-18 NSCLC
P388/ADR leukemia = test system: P388/ADR leukemia
SN12K1 renal = test system: SN12K1 renal
P388 leukemia = test system: P388 leukemia

O=[N+]([O-])c1ccc(-c2csc(=[N+]3CCCCC3)s2)cc1
TGI (M19-MEL melanoma): > 45.9 µM | TGI (RXF-631 renal): > 100 µM | TGI (LXFL 529 NSCLC): > 100 µM | TGI (KM20L2 colon): > 100 µM | TGI (DMS 273 small cell lung): > 100 µM | TGI (HOP-18 NSCLC): > 100 µM

CC[C@]12C=CCN3CCC4(c5cc([C@@]6(C(=O)OC)CC7CN(CCc8c6[nH]c6ccccc86)CC6CCCCC67)c(OC)cc5N(C)C4[C@](O)(C(=O)OC)C1OC(C)=O)[C@@H]32 (stereo partly specified)
TGI (M19-MEL melanoma): 17.6 µM | TGI (LXFL 529 NSCLC): 12.7 µM | TGI (KM20L2 colon): < 0.01 µM

O=C1Nc2cc(F)ccc2C1=O
TGI (M19-MEL melanoma): > 100 µM | TGI (LXFL 529 NSCLC): > 100 µM | TGI (KM20L2 colon): > 100 µM | TGI (DMS 273 small cell lung): > 100 µM | TGI (HOP-18 NSCLC): > 100 µM

CCCn1cc2c3c(cccc31)C1C=C(C)CN(C)C1C2 (stereo unspecified)
TGI (P388/ADR leukemia): 43.2 µM | TGI (KM20L2 colon): 38.8 µM | TGI (SN12K1 renal): 44.1 µM | TGI (DMS 273 small cell lung): 47.3 µM | TGI (HOP-18 NSCLC): 50.5 µM | TGI (P388 leukemia): 28.5 µM

c1cncc(CSc2nc3ccccc3nc2-c2cccs2)c1
TGI (M19-MEL melanoma): > 100 µM | TGI (DMS 273 small cell lung): > 100 µM | TGI (HOP-18 NSCLC): > 100 µM

CC(C)(C)c1ccnc(N=C2N=C(Nc3cc(C(C)(C)C)ccn3)c3ccccc32)c1
TGI (M19-MEL melanoma): > 100 µM | TGI (LXFL 529 NSCLC): > 100 µM | TGI (KM20L2 colon): 59.6 µM | TGI (HOP-18 NSCLC): 59.6 µM

CN(C)CCCNC(=O)N/N=C/c1ccccc1
TGI (M19-MEL melanoma): > 100 µM | TGI (DMS 273 small cell lung): > 100 µM | TGI (HOP-18 NSCLC): > 100 µM

COc1cc(N=Nc2ccc(OC)c(S(=O)(=O)O)c2)c(C)cc1N=Nc1ccc(/C=C/c2ccc(N=[N+]([O-])c3ccc(/C=C/c4ccc(N=Nc5cc(C)c(N=Nc6ccc(OC)c(S(=O)(=O)O)c6)cc5OC)cc4S(=O)(=O)O)c(S(=O)(=O)O)c3)cc2S(=O)(=O)O)c(S(=O)(=O)O)c1
TGI (M19-MEL melanoma): > 100 µM | TGI (KM20L2 colon): > 100 µM | TGI (SN12K1 renal): > 100 µM | TGI (DMS 273 small cell lung): > 100 µM | TGI (HOP-18 NSCLC): > 100 µM | TGI (P388 leukemia): > 100 µM
